Source: patent US6462170B1, “UPAR mimicking peptide” (Fondazione Centro San Raffaele del Monte Tabor, priority 1997, dated 2002)
Entries after “also recorded” stand apart in the source; their conditions may differ.

Legend:
THP-1 cells = assay: Chemotaxis assay in modified Boyden chambers; assay type: cell-based, human; conditions: for chemotactic response of THP-1 cells: Boyden chamber, 90 minutes, migration as percent of control, over the concentration range analyzed; for concentration giving maximal chemotactic response: THP-1 cells, FIG. 4 panels A and C; for concentration at which very potent chemotactic activity is seen: human THP-1 monocytoid cells (and murine LB6 fibroblastic cells)
Description: FIG. 3. […] For each set of experiments, migration toward the assay medium served as control (random cell migration) and is referred to as 100% migration. All experiments were performed in triplicate; the number of cells counted per high power field (ten fields for each condition) is expressed as percent of the control values. The proteins were purified as described in the Methods section. Data points represent the mean of three independent experiments (+SEM). The constructs used are depicted in FIG. 2.
Chemotaxis analysis were performed using modified Boyden chambers containing polyvinylpyrrolidone polycarbonate filters (13 mm diameter, […]) coated with collagen type I ([…] in PBS pH 7.4). The coated filters were washed with medium supplemented with 0.2% bovine serum albumin (BSA) and then placed in the Boyden apparatus. After acid wash, 2×10^5 THP-1 cells suspended in serum-free medium were added above the filter in the Boyden chamber. Purified mutants were diluted in serum-free medium at the indicated concentrations and added below the filter in the lower chamber. The chambers were incubated in a humidified incubafor at 37° C. in 5% CO2 in air for 90 minutes. Filters were removed, the upper surface scraped free of cells, fixed in methanol and stained with crystal violet. For each set of experiments, migration toward the assay medium served as control (random cell migration) and is referred to as 100% migration. All experiments were performed in triplicate; data are reported as number of cells counted for high power field (ten fields for each condition) and expressed as percentage of the control values. Data points represent the mean of three independent experiments (+SEM). When cells of the fibroblast-type or cancer cells were employed for the assay, the time required for migration was higher and the Boyden chamber were usually incubated overnight.

[1] = test system: cells binding to D1(1-92)- or peptide-coated plates; assay: Panning / cell adhesion on coated plastic plates; assay type: cell-based; conditions: for adhesion of mammalian cells to plastic plates coated with the substance: bacterial-grade plastic dishes coated with the substance; for inhibition of adhesion of cells onto D1(1-92): plates coated with D1(1-92)
Description: However, when those plates are coated with peptide 1 or 2 (or domain D1-1-92) or with recombinant forms of these peptides, they adhere because they express on their surface specific D1(1-92)-binding proteins. The adhesion can be measured.
As a positive control (i.e. to set up the technique), cells (106) exposing a high number of uPAR molecules are used and the panning is carried out on plates coated with a specific anti-uPAR antibody. As a negative control, the same cells but now not expressing uPAR are employed. The cells employed as negative controls are LB6, 32D, 3T3 fibroblasts, B-lymphoid cell lines and others. As positive controls, THP-1 cells, LB6/uPAR, 32D/uPAR and other expressing cell lines are employed.
For the screening assay, the same cells employed as negative controls (106) are used, and the plates are coated with domain D1(1-92) or domain D1(1-87) (control). The ability of the cells to bind to the plates is tested after 30-300 minutes incubation at 37° C. by microscopic inspection, or by staining the plates with Coomassie Blue. The same can be done using different techniques.
The ability of peptides 1- or 2-coated plates to specifically bind the THP-1 cells is the basis for the screening technique, as any compound capable of inhibiting this binding is a potential antiinflammatory agent, inhibiting chemotaxis. […] Such compounds, therefore, can be tested as inhibitors of chemotaxis, employing the methods outlined in examples 1-3. Coating can also be carried out with other recombinant forms of the SRSRY (SEQ ID NO:7) sequence in which the epitope is synthesized in fusion with other proteins. Suitable proteins are ferritin (Sidoli et al. (1993)), thioredoxin, GST, beta galactosidase, human serum albumin.

p56/p59hck = p56/p59hck immunoprecipitation and in vitro kinase assay after treatment of THP-1 cells; assay type: cell-based, human
Description: FIG. 5. In this figure, the stimulating effect of peptide 1 on the activity of Hck kinase of THP-1 cells is shown. THP-1 cells were metabolically labelled with [35S]-TransLabel, acid washed, and either mock-treated or treated with 0.1 nM peptide 1 (AVTYSRSRYLEC, (SEQ ID NO:1)) for the indicated time at 37° C. Radiolabelled cell lysates were immunoprecipitated (Resnati et al., 1996) using an affinity-purified rabbit polyclonal anti-p56/p59hck antibody.
(A) An aliquot from each immunoprecipitate was directly analyzed by SDS-PAGE to control that equal amount of p56/p59hck were present during in vitro kinase assay.
(B) The remainder of each immunoprecipitate was subjected to in vitro kinase assay in presence of […] of [g-32P]ATP (˜3000 Ci/mmol, Amersham) and […] rabbit muscle enolase for 5 minutes at room temperature. Eluates were thus analyzed by SDS-PAGE autobiography (7.5% acrylamide).
The mixture of chymotrypsin fragments of suPAR, like the uPA/uPAR interaction, induces chemotaxis by transiently activating the p56/p59hck protein kinase (Resnati et al., 1996). If human uPAR-related peptides containing the SRSRY (SEQ ID NO:7) motif induce a chemotactic response on THP-1 cells though the same mechanism exploited by the uPA/uPAR interaction (i.e. by binding to the unidentified adaptor), they should also activate p56/p59hck. THP-1 cells were metabolically labelled with [35S]-TransLabel, acid washed, and either mock-treated or treated with 0.1 nM peptide 1 (AVTYSRSRYLEC (SEQ ID NO:1)) for the indicated time at 37° C. Radiolabelled cell lysates were immunoprecipitated (Resnati et al.,1996) using an affinity-purified rabbit polyclonal anti-p56/p59hck antibody. An aliquot from each immunoprecipitate was directly analyzed by SDS-PAGE to control that equal amount of p56/p59hck were present during in vitro kinase assay (FIG. 5, panel A). The remainder of each immunoprecipitate was subjected to in vitro kinase assay in presence of […] of [g-32P)]ATP (˜3000 Ci/mmol, Amersham) and […] rabbit muscle enolase (substrate) for 5 minutes at room temperature. Eluates were thus analyzed by SDS-PAGE autobiography (7.5% acrylamide). […] The effect was very rapid, since p56/pS9hck stimulation was already- evident after 2 minutes, reached a maximum after […] and returned to the basal level 30 minutes after the addition of the peptide. No effect on p56/p59hck activity was observed when 0.1 nM of the corresponding scrambled peptide was used in the assay (data not shown). The time-course of the effect is identical to that observed with the addition of ATF or of chymotryptic uPAR fragments to THP-1 cells and reported previously (Resnati et al., 1996).

uPAR = uPAR (Homo sapiens, UniProt Q03405); conditions: read-out: affinity of binding to uPAR; cited from earlier work
Sequence of uPAR (Q03405 23-305): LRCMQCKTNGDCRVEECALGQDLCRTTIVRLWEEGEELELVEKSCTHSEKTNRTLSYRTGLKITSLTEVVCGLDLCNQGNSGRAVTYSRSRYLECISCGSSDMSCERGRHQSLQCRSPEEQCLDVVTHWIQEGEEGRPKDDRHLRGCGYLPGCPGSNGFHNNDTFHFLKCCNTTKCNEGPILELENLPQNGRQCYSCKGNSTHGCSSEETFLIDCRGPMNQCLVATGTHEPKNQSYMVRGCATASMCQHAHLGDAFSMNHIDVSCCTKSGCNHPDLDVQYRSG

| Substance | chemotactic response of THP-1 cells (THP-1 cells) | concentration giving maximal chemotactic response (THP-1 cells) | concentration at which very potent chemotactic activity is seen (THP-1 cells) | adhesion of mammalian cells to plastic plates coated with the substance [1] | inhibition of adhesion of cells onto D1(1-92) [1] | other results |
| --- | --- | --- | --- | --- | --- | --- |
| YTARLWGGTLLT [peptide 3, reference compound] | no effect on cell migration |  |  |  |  |  |
| SRSRYLEC [peptide 2] | dose-dependent chemotactic effect; also recorded: very potent activity | 0.1 pM | 0.1 pM | adhere | inhibit adhesion |  |
| AVTYSRSRYLEC [peptide 1] | dose-dependent chemotactic effect; also recorded: very potent activity | 0.1 pM | 0.1 pM | adhere | inhibit adhesion | time at which p56/p59hck stimulation is already evident (p56/p59hck; 0.1 nM peptide): 2 min; autophosphorylation of p56/p59hck (p56/p59hck; 0.1 nM peptide, 37° C.): increase; phosphorylation of the exogenous substrate (rabbit muscle enolase) (p56/p59hck; 0.1 nM peptide, 37° C.): increase; time of return of p56/p59hck activity to the basal level (p56/p59hck; 0.1 nM peptide, after addition of the peptide): 30 min |
| TLVEYYSRASCR [reference compound] | no effect on cell migration |  |  |  | cannot | chemotactic response of THP-1 cells (THP-1 cells; listed as peptide-1 scrambled): do not; effect on p56/p59hck activity (p56/p59hck; 0.1 nM (data not shown)): No effect |
| vitronectin: protein bound by uPAR domains D2 and D3 |  |  |  |  |  | Kd (uPAR): 10 to 20 nM |
